Experimental data taken from ChEMBL document CHEMBL4251622, “Design, synthesis, and biological evaluation of polo-like kinase 1/eukaryotic elongation factor 2 kinase (PLK1/EEF2K) dual inhibitors for regulating breast cancer cells apoptosis and autophagy” (Eur J Med Chem, 2018).
Calls of active or inactive are those of the source. The rule behind the calls is not given here.

What was measured:
[1] = target: Cyclin-dependent kinase 16 (Homo sapiens) (UniProt Q00536); assay: Inhibition of wild-type human partial length PCTK1 (G160 to A474 residues) expressed in mammalian expression system assessed as residual activity at 1 uM by Kinomescan method relative to control
BT-483 [2] = assay: Effect on FADD protein expression in human BT-483 cells at 5 to 10 uM by Western blot analysis; type: functional, cell-based
[3] = target: Dual specificity mitogen-activated protein kinase kinase 1 (Homo sapiens) (UniProt Q02750); assay: Inhibition of wild-type human full length MEK1 (M1 to V393 residues) expressed in mammalian expression system assessed as residual activity at 1 uM by Kinomescan method relative to control
[4] = target: Mitogen-activated protein kinase 14 (Homo sapiens) (UniProt Q16539); assay: Inhibition of wild-type human full length p38-alpha (M1 to S360 residues) expressed in bacterial expression system assessed as residual activity at 1 uM by Kinomescan method relative to control
MDA-MB-468 = assay: Cytotoxicity against human MDA-MB-468 cells after 24 hrs by MTT assay; type: functional, cell-based
[5] = target: Mast/stem cell growth factor receptor Kit (Homo sapiens) (UniProt P10721); assay: Inhibition of wild-type human partial length KIT (I571 to D952 residues) expressed in bacterial expression system assessed as residual activity at 1 uM by Kinomescan method relative to control
[6] = target: Death-associated protein kinase 1 (Homo sapiens) (UniProt P53355); assay: Inhibition of wild-type human partial length DAPK1 (M1 to F296 residues) expressed in bacterial expression system assessed as residual activity at 1 uM by Kinomescan method relative to control
[7] = target: Fibroblast growth factor receptor 1 (Homo sapiens) (UniProt P11362); assay: Inhibition of wild-type human partial length FGFR1 (P357 to V669 residues) expressed in bacterial expression system assessed as residual activity at 1 uM by Kinomescan method relative to control
[8] = target: Proto-oncogene tyrosine-protein kinase receptor Ret (Homo sapiens) (UniProt P07949); assay: Inhibition of wild-type human partial length RET (E713 to D1014 residues) expressed in bacterial expression system assessed as residual activity at 1 uM by Kinomescan method relative to control
[9] = target: Tyrosine-protein kinase ZAP-70 (Homo sapiens) (UniProt P43403); assay: Inhibition of wild-type human partial length ZAP70 (D20 to G299 residues) expressed in mammalian expression system assessed as residual activity at 1 uM by Kinomescan method relative to control
[10] = target: High affinity nerve growth factor receptor (Homo sapiens) (UniProt P04629); assay: Inhibition of wild-type human partial length TRKA (G475 to G790 residues) expressed in mammalian expression system assessed as residual activity at 1 uM by Kinomescan method relative to control
MCF7 = assay: Cytotoxicity against human MCF7 cells after 24 hrs by MTT assay; type: functional, cell-based; details: MCF7, 24 h
[11] = target: Platelet-derived growth factor receptor beta (Homo sapiens) (UniProt P09619); assay: Inhibition of wild-type human partial length PDGFRB (V582 to Y1009 residues) expressed in bacterial expression system assessed as residual activity at 1 uM by Kinomescan method relative to control
BT-483 [12] = assay: Upregulation of cytochrome-c protein expression in human BT-483 cells at 5 to 10 uM by Western blot analysis; type: functional, cell-based
[13] = target: Inhibitor of nuclear factor kappa-B kinase subunit alpha (Homo sapiens) (UniProt O15111); assay: Inhibition of wild-type human full length IKK-alpha (M1 to E745 residues) expressed in mammalian expression system assessed as residual activity at 1 uM by Kinomescan method relative to control
[14] = target: Cyclin-dependent kinase 19 (Homo sapiens) (UniProt Q9BWU1); assay: Inhibition of wild-type human partial length CDK11 (M1 to N360 residues) expressed in bacterial expression system assessed as residual activity at 1 uM by Kinomescan method relative to control
[15] = target: Epidermal growth factor receptor (Homo sapiens) (UniProt P00533); assay: Inhibition of wild-type human partial length EGFR (R669 to V1011 residues) expressed in bacterial expression system assessed as residual activity at 1 uM by Kinomescan method relative to control
[16] = target: Serine/threonine-protein kinase pim-3 (Homo sapiens) (UniProt Q86V86); assay: Inhibition of wild-type human partial length PIM3 (G16 to A317 residues) expressed in bacterial expression system assessed as residual activity at 1 uM by Kinomescan method relative to control
[17] = target: Testis-specific serine/threonine-protein kinase 1 (Homo sapiens) (UniProt Q9BXA7); assay: Inhibition of wild-type human full length TSSK1B (M1 to Q367 residues) expressed in bacterial expression system assessed as residual activity at 1 uM by Kinomescan method relative to control
[18] = target: Cyclin-dependent kinase 3 (Homo sapiens) (UniProt Q00526); assay: Inhibition of wild-type human full length CDK3 (M1 to H305 residues) expressed in bacterial expression system assessed as residual activity at 1 uM by Kinomescan method relative to control
BT-483 [19] = assay: Induction of apoptosis in human BT-483 cells assessed as late apoptotic cells at 10 uM by Annexin V-FITC/propidium iodide staining based flow cytometry (reference value: 0.36%); type: functional
MDA-MB-231 = assay: Cytotoxicity against human MDA-MB-231 cells after 24 hrs by MTT assay; type: functional, cell-based
[20] = target: MAP/microtubule affinity-regulating kinase 3 (Homo sapiens) (UniProt P27448); assay: Inhibition of wild-type human full length MARK3 (M1 to L729 residues) expressed in bacterial expression system assessed as residual activity at 1 uM by Kinomescan method relative to control
BT-483 [21] = assay: Induction of autophagy in human BT-483 cells assessed as activation of LC3 at 5 to 10 uM by Western blot analysis; type: functional, cell-based
[22] = target: Serine/threonine-protein kinase PLK1 (Homo sapiens, UniProt P53350); assay: Inhibition of wild-type human partial length PLK1 (A33 to F325 residues) expressed in mammalian expression system assessed as residual activity at 1 uM by Kinomescan method relative to control
[23] = target: RAC-alpha serine/threonine-protein kinase (Homo sapiens) (UniProt P31749); assay: Inhibition of wild-type human partial length AKT1 expressed in bacterial expression system assessed as residual activity at 1 uM by Kinomescan method relative to control
[24] = target: Phosphatidylinositol 4-phosphate 3-kinase C2 domain-containing subunit beta (Homo sapiens) (UniProt O00750); assay: Inhibition of wild-type human partial length PIK3C2B (M1 to L1634 residues) expressed in mammalian expression system assessed as residual activity at 1 uM by Kinomescan method relative to control
[25] = target: Cyclin-dependent kinase 9 (Homo sapiens) (UniProt P50750); assay: Inhibition of wild-type human full length CDK9 (M1 to F372 residues) expressed in bacterial expression system assessed as residual activity at 1 uM by Kinomescan method relative to control
Cyclin-dependent kinase 9 (Homo sapiens), sequence (P50750 whole entry, the tested form may be a part): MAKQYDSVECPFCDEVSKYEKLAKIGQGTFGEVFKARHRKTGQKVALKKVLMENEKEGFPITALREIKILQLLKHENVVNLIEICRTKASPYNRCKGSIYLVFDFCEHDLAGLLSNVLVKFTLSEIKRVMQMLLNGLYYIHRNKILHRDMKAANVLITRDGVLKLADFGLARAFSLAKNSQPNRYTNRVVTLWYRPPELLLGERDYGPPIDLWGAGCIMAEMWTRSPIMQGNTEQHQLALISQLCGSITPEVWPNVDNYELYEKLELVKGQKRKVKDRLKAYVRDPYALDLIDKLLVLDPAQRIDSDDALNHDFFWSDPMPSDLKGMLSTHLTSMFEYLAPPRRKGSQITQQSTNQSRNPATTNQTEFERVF

Testis-specific serine/threonine-protein kinase 1 (Homo sapiens), sequence (Q9BXA7 whole entry, the tested form may be a part): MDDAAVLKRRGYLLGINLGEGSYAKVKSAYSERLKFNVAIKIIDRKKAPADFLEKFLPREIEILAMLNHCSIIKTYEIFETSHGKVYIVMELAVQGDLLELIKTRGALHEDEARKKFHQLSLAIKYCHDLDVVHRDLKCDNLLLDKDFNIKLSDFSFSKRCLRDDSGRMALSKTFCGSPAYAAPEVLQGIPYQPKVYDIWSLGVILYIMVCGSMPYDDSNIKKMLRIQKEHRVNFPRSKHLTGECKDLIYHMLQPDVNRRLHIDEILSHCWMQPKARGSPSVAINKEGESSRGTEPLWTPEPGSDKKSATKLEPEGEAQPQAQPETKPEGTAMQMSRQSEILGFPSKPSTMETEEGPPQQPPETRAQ
Cyclin-dependent kinase 19 (Homo sapiens), sequence (Q9BWU1 whole entry, the tested form may be a part): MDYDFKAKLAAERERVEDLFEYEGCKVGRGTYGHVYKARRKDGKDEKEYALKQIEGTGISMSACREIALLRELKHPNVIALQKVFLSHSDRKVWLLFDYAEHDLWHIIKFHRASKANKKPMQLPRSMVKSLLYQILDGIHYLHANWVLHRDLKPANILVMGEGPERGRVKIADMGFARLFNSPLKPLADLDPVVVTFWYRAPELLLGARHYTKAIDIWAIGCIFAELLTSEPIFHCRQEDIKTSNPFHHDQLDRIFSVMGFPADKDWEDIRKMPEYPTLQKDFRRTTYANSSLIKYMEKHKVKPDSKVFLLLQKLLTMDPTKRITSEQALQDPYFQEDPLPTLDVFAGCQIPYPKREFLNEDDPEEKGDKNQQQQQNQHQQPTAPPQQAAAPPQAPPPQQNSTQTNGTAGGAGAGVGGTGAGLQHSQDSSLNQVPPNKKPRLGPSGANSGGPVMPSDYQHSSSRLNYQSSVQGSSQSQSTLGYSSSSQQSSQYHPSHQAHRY
Epidermal growth factor receptor (Homo sapiens), sequence (P00533 whole entry, the tested form may be a part): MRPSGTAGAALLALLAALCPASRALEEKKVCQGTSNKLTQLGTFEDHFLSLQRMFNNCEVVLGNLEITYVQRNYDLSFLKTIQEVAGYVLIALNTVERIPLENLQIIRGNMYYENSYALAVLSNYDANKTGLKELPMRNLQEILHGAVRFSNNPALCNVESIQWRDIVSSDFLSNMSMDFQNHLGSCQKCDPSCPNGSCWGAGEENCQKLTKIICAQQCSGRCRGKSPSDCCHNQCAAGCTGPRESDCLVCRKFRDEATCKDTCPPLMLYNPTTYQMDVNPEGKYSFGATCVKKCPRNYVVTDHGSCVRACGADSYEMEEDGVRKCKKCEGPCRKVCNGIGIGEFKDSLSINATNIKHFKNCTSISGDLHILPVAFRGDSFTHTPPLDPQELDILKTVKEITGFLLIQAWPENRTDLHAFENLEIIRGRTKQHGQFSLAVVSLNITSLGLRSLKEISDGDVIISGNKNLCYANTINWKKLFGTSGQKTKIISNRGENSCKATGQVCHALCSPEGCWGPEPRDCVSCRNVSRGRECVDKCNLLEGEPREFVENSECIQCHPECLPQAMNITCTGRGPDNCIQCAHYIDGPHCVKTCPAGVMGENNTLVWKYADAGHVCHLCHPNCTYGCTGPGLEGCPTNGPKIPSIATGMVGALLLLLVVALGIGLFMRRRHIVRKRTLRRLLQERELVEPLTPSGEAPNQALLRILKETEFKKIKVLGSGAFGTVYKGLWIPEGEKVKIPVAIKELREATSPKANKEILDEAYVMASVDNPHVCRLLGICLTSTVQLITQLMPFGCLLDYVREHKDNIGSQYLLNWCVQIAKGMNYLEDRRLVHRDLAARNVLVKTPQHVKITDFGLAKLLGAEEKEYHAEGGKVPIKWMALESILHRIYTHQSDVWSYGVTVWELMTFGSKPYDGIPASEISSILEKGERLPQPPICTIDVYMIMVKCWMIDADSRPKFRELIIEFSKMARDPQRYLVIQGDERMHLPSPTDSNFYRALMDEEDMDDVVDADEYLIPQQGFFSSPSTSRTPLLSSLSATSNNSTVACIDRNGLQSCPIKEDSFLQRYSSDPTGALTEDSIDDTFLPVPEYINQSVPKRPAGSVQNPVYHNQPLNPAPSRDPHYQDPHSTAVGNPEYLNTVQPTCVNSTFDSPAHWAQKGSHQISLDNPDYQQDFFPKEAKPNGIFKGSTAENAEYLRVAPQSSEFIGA
Mitogen-activated protein kinase 14 (Homo sapiens), sequence (Q16539 whole entry, the tested form may be a part): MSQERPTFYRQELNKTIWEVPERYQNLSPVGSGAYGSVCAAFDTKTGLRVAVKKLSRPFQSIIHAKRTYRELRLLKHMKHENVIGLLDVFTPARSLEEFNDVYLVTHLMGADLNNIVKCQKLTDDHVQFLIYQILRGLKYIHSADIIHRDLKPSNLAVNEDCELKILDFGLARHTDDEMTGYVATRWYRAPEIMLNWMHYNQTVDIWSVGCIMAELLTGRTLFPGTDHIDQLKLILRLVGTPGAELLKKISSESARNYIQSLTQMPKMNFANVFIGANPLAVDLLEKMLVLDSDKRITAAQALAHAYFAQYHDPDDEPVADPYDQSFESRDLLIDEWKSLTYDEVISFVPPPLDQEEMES
Mast/stem cell growth factor receptor Kit (Homo sapiens), sequence (P10721 whole entry, the tested form may be a part): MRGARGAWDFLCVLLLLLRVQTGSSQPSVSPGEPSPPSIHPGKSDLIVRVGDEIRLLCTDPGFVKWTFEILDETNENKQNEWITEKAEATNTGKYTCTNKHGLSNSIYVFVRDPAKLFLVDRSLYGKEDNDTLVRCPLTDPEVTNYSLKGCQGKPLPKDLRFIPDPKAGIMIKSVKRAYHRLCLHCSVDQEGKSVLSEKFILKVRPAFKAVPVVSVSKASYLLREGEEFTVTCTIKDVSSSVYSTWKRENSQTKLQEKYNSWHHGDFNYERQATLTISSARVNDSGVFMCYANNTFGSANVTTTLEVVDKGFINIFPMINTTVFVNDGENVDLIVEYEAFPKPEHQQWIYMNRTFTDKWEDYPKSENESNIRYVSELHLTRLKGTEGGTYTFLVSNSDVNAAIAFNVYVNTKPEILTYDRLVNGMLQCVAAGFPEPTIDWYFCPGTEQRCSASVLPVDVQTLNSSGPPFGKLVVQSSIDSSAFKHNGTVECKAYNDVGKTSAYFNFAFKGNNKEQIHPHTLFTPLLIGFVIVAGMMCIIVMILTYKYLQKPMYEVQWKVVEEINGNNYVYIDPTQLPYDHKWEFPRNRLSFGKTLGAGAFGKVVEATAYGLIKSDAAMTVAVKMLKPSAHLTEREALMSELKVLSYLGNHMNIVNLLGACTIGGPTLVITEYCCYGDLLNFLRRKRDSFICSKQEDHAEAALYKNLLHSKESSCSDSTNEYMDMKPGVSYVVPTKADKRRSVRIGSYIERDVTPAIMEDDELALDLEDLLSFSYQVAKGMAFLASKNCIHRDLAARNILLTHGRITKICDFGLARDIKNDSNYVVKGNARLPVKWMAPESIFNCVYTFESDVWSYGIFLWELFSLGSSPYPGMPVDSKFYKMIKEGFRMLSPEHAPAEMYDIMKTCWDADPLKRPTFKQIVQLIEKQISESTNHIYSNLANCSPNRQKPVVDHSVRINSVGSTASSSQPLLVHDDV
Serine/threonine-protein kinase PLK1, sequence (P53350 whole entry, the tested form may be a part): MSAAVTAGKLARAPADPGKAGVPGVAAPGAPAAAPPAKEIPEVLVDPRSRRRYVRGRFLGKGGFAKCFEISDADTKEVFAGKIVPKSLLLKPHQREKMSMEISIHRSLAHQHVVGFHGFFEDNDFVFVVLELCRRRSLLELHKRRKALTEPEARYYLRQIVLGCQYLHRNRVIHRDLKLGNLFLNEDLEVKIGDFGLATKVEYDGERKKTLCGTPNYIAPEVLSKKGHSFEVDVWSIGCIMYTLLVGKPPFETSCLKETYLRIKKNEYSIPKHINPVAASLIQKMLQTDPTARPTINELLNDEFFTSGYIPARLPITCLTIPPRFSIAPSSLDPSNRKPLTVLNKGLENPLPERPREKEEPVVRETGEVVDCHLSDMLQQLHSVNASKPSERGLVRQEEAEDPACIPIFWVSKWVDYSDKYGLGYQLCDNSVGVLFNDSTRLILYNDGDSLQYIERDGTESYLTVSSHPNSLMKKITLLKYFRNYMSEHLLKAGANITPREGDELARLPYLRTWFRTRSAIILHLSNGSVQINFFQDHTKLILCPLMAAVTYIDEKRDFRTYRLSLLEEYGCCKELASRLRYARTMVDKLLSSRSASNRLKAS
Cyclin-dependent kinase 3 (Homo sapiens), sequence (Q00526 whole entry, looked up, the tested form may be a part): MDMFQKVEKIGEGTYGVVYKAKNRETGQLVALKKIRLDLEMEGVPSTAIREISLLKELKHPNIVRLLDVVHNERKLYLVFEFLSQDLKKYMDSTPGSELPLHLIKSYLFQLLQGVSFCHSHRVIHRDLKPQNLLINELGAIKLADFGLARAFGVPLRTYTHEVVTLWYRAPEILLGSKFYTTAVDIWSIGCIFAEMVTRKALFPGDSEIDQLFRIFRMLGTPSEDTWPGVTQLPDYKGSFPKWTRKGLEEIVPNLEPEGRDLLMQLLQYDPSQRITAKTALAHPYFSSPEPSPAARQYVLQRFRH

Compound: CCNc1cc(-c2ccc(NC(=O)Nc3cccc(Cl)c3)cc2C(F)(F)F)ccn1
- Activity [1]: 66%
- Activity (BT-483 [2]): inactive
- Activity [3]: 96%
- Activity [4]: 84%
- Activity (MDA-MB-468): Active
- Activity [5]: 76%
- Activity [6]: 93%
- Activity [7]: 91%
- Activity [8]: 64%
- Activity [9]: 71%
- Activity [10]: 84%
- IC50 (MCF7): 1.24 µM
- Activity [11]: 83%
- Activity (BT-483 [12]): Active
- Activity [13]: 95%
- Activity [14]: 89%
- Activity [15]: 90%
- Activity [16]: 100%
- Activity [17]: 64%
- Activity [18]: 87%
- Activity (BT-483 [19]): 12%
- Activity (MDA-MB-231): Active
- Activity [20]: 90%
- Activity (BT-483 [21]): Active
- Activity [22]: 7%
- Activity [23]: 90%
- Activity [24]: 97%
- Activity [25]: 91%
